Results as given in US20100298141A1, “SUBSTITUTED PYRIDINE N-OXIDE HERBICIDES” (E. I. DU PONT DE NEMOURS AND COMPANY, priority 2007, published 2010).

Key:
[1] = system: common ragweed; assay: Test C pre-/postemergence test; type: in vivo, Ambrosia elation; settings: for Plant response rating, Ragweed: scale 0 to 100, 0 no effect, 100 complete control
Procedure, shortened: (§1)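 Compounds in a non-phytotoxic solvent with surfactant applied preemergence to seeded pots and, at the same time, postemergence to plants 2–18 cm tall (1- to 4-leaf stage). Paddy tests: pots flooded to 3 cm, compound applied into the water, depth held throughout.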

[2] = system: yellow nutsedge; assay: Test C pre-/postemergence test; type: in vivo, Cyperus esculentus; settings: for Plant response rating, Nutsedge, Yellow: scale 0 to 100, 0 no effect, 100 complete control
Procedure, shortened: as §1

[3] = system: corn; assay: Test C pre-/postemergence test; type: in vivo, Zea mays; settings: for Plant response rating, Corn: scale 0 to 100, 0 no effect, 100 complete control
Procedure, shortened: as §1

[4] = system: crabgrass; assay: Test A pre-/postemergence greenhouse test; type: in vivo, Digitaria sanguinalis; settings: for Crabgrass, Large plant response rating: 0 to 100 scale
Procedure, shortened: (§2)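 Seeds sown in a loam soil–sand blend got a preemergence directed soil spray of compound in a non-phytotoxic solvent mixture containing surfactant. Postemergence sprays of the same formulation went at the same time onto plants 2–10 cm tall at the one- to two-leaf stage. Injury was scored visually against untreated controls after about ten days in the greenhouse.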

[5] = system: cocklebur; assay: Test C pre-/postemergence test; type: in vivo, Xanthium strumarium; settings: for Plant response rating, Cocklebur: scale 0 to 100, 0 no effect, 100 complete control
Procedure, shortened: as §1

[6] = system: morningglory; assay: Test C pre-/postemergence test; type: in vivo, Ipomoea coccinea; settings: for Plant response rating, Morningglory: scale 0 to 100, 0 no effect, 100 complete control
Procedure, shortened: as §1

[7] = system: soybean; assay: Test C pre-/postemergence test; type: in vivo, Glycine max; settings: for Soybean plant response rating: preemergence, scale 0 (no effect) to 100 (complete control); for Plant response rating, Soybean: scale 0 to 100, 0 no effect, 100 complete control
Procedure, shortened: as §1

[8] = system: woolly cupgrass; assay: Test C pre-/postemergence test; type: in vivo, Eriochloa villosa; settings: for Plant response rating, Cupgrass, Woolly: scale 0 to 100, 0 no effect, 100 complete control
Procedure, shortened: as §1

[9] = system: giant foxtail; assay: Test C pre-/postemergence test; type: in vivo, Setaria faberii; settings: for Plant response rating, Foxtail, Giant: scale 0 to 100, 0 no effect, 100 complete control
Procedure, shortened: as §1

[10] = system: downy brome; assay: Test C pre-/postemergence test; type: in vivo, Bromus tectorum; settings: for Plant response rating, Bromegrass, Downy: scale 0 to 100, 0 no effect, 100 complete control
Procedure, shortened: as §1

[11] = system: johnsongrass; assay: Test C pre-/postemergence test; type: in vivo, Sorghum halepense; settings: for Plant response rating, Johnsongrass: scale 0 to 100, 0 no effect, 100 complete control
Procedure, shortened: as §1

[12] = system: wheat; assay: Test A pre-/postemergence greenhouse test; type: in vivo, Triticum aestivum; settings: for Wheat plant response rating: 0 to 100 scale
Procedure, shortened: as §2

[13] = system: lambsquarters; assay: Test C pre-/postemergence test; type: in vivo, Chenopodium album; settings: for Plant response rating, Lambsquarters: scale 0 to 100, 0 no effect, 100 complete control
Procedure, shortened: as §1

[14] = system: giant foxtail; assay: Test A pre-/postemergence greenhouse test; type: in vivo, Setaria faberi; settings: for Foxtail, Giant plant response rating: 0 to 100 scale
Procedure, shortened: as §2

[15] = system: Goosegrass; assay: Test C pre-/postemergence test; type: in vivo, Eleusin indica; settings: for Plant response rating, Goosegrass: scale 0 to 100, 0 no effect, 100 complete control
Procedure, shortened: as §1

[16] = system: morningglory; assay: Test A pre-/postemergence greenhouse test; type: in vivo, Ipomoea spp.; settings: for Morningglory plant response rating: 0 to 100 scale
Procedure, shortened: as §2

[17] = 31 g ai/ha, Preemergence, scale 0 to 100
[18] = 62 g ai/ha, preemergence, scale 0 (no effect) to 100 (complete control)
[19] = preemergence, 125 g ai/ha, scale 0 (no effect) to 100 (complete control)
[20] = Postemergence, 125 g ai/ha, 0 is no effect, 100 is complete control
[21] = Postemergence, 500 g ai/ha, 0 is no effect, 100 is complete control
[22] = Preemergence, 125 g ai/ha, 0 no effect, 100 complete control
[23] = Preemergence, 500 g ai/ha, 0 to 100 scale where 0 is no effect and 100 is complete control

Cc1cc[n+]([O-])c([S+]([O-])Cc2c(C(F)(F)F)nn(C)c2OC(F)F)c1 (stereo not drawn) [Compound 1]
75: Plant response rating, Morningglory ([6]; Postemergence, 250 g ai/ha)
100: Plant response rating (0 to 100), Nutsedge, Yellow ([2]; Preemergence, 250 g ai/ha) | Nutsedge, Yellow plant response rating [2, 19] | Crabgrass, Large plant response rating [4, 22] | Plant response rating, Crabgrass, Large [4, 23] | Morningglory plant response rating [6, 18] | Plant response rating (0 to 100), Morningglory ([6]; Preemergence, 250 g ai/ha) | Morningglory plant response rating [6, 19] | Soybean plant response rating ([7]; 62 g ai/ha) | Plant response rating (0 to 100), Soybean ([7]; Preemergence, 250 g ai/ha) | Soybean plant response rating ([7]; 125 g ai/ha) | Plant response rating (0 to 100), Foxtail, Giant ([9]; Preemergence, 250 g ai/ha) | Foxtail, Giant plant response rating [9, 19] | Plant response rating (0 to 100), Bromegrass, Downy ([10]; Preemergence, 250 g ai/ha) | Bromegrass, Downy plant response rating [10, 19] | Plant response rating (0 to 100), Johnsongrass ([11]; Preemergence, 250 g ai/ha) | Johnsongrass plant response rating [11, 19] | Lambsquarters plant response rating [13, 17] | Lambsquarters plant response rating [13, 18] | Plant response rating (0 to 100), Lambsquarters ([13]; Preemergence, 250 g ai/ha) | Lambsquarters plant response rating [13, 19] | Foxtail, Giant plant response rating [14, 22] | Plant response rating, Foxtail, Giant [14, 23] | Goosegrass plant response rating [15, 18] | Plant response rating (0 to 100), Goosegrass ([15]; Preemergence, 250 g ai/ha) | Goosegrass plant response rating [15, 19]
95: Nutsedge, Yellow plant response rating [2, 18] | Corn plant response rating [3, 19]
10: Ragweed plant response rating [1, 18] | Plant response rating, Ragweed ([1]; Postemergence, 125 g ai/ha) | Plant response rating, Johnsongrass ([11]; Postemergence, 250 g ai/ha)
90: Crabgrass, Large plant response rating [4, 21] | Plant response rating, Soybean ([7]; Postemergence, 250 g ai/ha) | Plant response rating (0 to 100), Cupgrass, Woolly ([8]; Preemergence, 250 g ai/ha) | Cupgrass, Woolly plant response rating [8, 19] | Johnsongrass plant response rating [11, 18] | Plant response rating, Wheat [12, 23] | Foxtail, Giant plant response rating [14, 21] | Morningglory plant response rating [16, 21]
98: Plant response rating (0 to 100), Corn ([3]; Preemergence, 250 g ai/ha)
40: Plant response rating (0 to 100), Morningglory ([6]; Postemergence, 31 g ai/ha) | Plant response rating, Morningglory ([6]; Postemergence, 62 g ai/ha) | Cupgrass, Woolly plant response rating [8, 17] | Plant response rating, Cupgrass, Woolly ([8]; Postemergence, 125 g ai/ha) | Plant response rating, Lambsquarters ([13]; Postemergence, 62 g ai/ha) | Plant response rating, Lambsquarters ([13]; Postemergence, 125 g ai/ha)
50: Corn plant response rating [3, 17] | Bromegrass, Downy plant response rating [10, 18]
70: Plant response rating, Cupgrass, Woolly ([8]; Postemergence, 250 g ai/ha) | Foxtail, Giant plant response rating [9, 18] | Wheat plant response rating [12, 20] | Wheat plant response rating [12, 21] | Plant response rating, Lambsquarters ([13]; Postemergence, 250 g ai/ha) | Goosegrass plant response rating [15, 17] | Morningglory plant response rating [16, 20] | Morningglory plant response rating [16, 22]
30: Plant response rating, Goosegrass ([15]; Postemergence, 125 g ai/ha)
20: Plant response rating, Ragweed ([1]; Postemergence, 250 g ai/ha)
85: Plant response rating (0 to 100), Ragweed ([1]; Preemergence, 250 g ai/ha) | Ragweed plant response rating [1, 19] | Morningglory plant response rating [6, 17] | Plant response rating (0 to 100), Soybean ([7]; Postemergence, 62 g ai/ha) | Plant response rating, Soybean ([7]; Postemergence, 125 g ai/ha)
80: Johnsongrass plant response rating [11, 17] | Foxtail, Giant plant response rating [14, 20] | Plant response rating, Goosegrass ([15]; Postemergence, 250 g ai/ha) | Plant response rating, Morningglory [16, 23]
60: Corn plant response rating [3, 18] | Crabgrass, Large plant response rating [4, 20] | Plant response rating (0 to 100), Cocklebur ([5]; Preemergence, 250 g ai/ha) | Plant response rating (0 to 100), Soybean ([7]; Postemergence, 31 g ai/ha) | Cupgrass, Woolly plant response rating [8, 18] | Foxtail, Giant plant response rating [9, 17] | Plant response rating, Foxtail, Giant ([9]; Postemergence, 250 g ai/ha) | Wheat plant response rating [12, 22]
45: Plant response rating, Morningglory ([6]; Postemergence, 125 g ai/ha) | Plant response rating, Foxtail, Giant ([9]; Postemergence, 125 g ai/ha)
0: Ragweed plant response rating [1, 17] | Plant response rating (0 to 100), Ragweed ([1]; Postemergence, 31 g ai/ha) | Plant response rating (0 to 100), Ragweed ([1]; Postemergence, 62 g ai/ha) | Nutsedge, Yellow plant response rating [2, 17] | Plant response rating (0 to 100), Nutsedge, Yellow ([2]; Postemergence, 31 g ai/ha) | Plant response rating, Nutsedge, Yellow ([2]; Postemergence, 62 g ai/ha) | Plant response rating, Nutsedge, Yellow ([2]; Postemergence, 125 g ai/ha) | Plant response rating, Nutsedge, Yellow ([2]; Postemergence, 250 g ai/ha) | Plant response rating (0 to 100), Corn ([3]; Postemergence, 31 g ai/ha) | Plant response rating, Corn ([3]; Postemergence, 62 g ai/ha) | Plant response rating, Corn ([3]; Postemergence, 125 g ai/ha) | Cocklebur plant response rating [5, 17] | Cocklebur plant response rating [5, 18] | Plant response rating (0 to 100), Cocklebur ([5]; Postemergence, 31 g ai/ha) | Plant response rating, Cocklebur ([5]; Postemergence, 62 g ai/ha) | Plant response rating, Cocklebur ([5]; Postemergence, 125 g ai/ha) | Plant response rating, Cocklebur ([5]; Postemergence, 250 g ai/ha) | Cocklebur plant response rating [5, 19] | Plant response rating (0 to 100), Cupgrass, Woolly ([8]; Postemergence, 31 g ai/ha) | Plant response rating, Cupgrass, Woolly ([8]; Postemergence, 62 g ai/ha) | Plant response rating (0 to 100), Foxtail, Giant ([9]; Postemergence, 31 g ai/ha) | Plant response rating, Foxtail, Giant ([9]; Postemergence, 62 g ai/ha) | Bromegrass, Downy plant response rating [10, 17] | Plant response rating (0 to 100), Bromegrass, Downy ([10]; Postemergence, 31 g ai/ha) | Plant response rating, Bromegrass, Downy ([10]; Postemergence, 62 g ai/ha) | Plant response rating, Bromegrass, Downy ([10]; Postemergence, 125 g ai/ha) | Plant response rating, Bromegrass, Downy ([10]; Postemergence, 250 g ai/ha) | Plant response rating (0 to 100), Johnsongrass ([11]; Postemergence, 31 g ai/ha) | Plant response rating, Johnsongrass ([11]; Postemergence, 62 g ai/ha) | Plant response rating, Johnsongrass ([11]; Postemergence, 125 g ai/ha) | Plant response rating (0 to 100), Lambsquarters ([13]; Postemergence, 31 g ai/ha) | Plant response rating (0 to 100), Goosegrass ([15]; Postemergence, 31 g ai/ha) | Plant response rating, Goosegrass ([15]; Postemergence, 62 g ai/ha)
5: Plant response rating, Corn ([3]; Postemergence, 250 g ai/ha)
